Data as given in patent US20240368135A1 (VERTEX PHARMACEUTICALS INCORPORATED, priority 2021, published 2024).
pIC50: −log10 of the molar value.

Molecular target: human NaV 1.8 (Homo sapiens, UniProt Q9Y5Y9)
Test: E-VIPR assay detecting and measuring NaV inhibition properties
Assay type: cell-based
Settings: HEK cells expressing truncated human NaV 1.8; no human serum; read-out: IC50 in the E-VIPR Assay
In short: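 HEK cells expressing truncated, fully active human NaV1.8, with KIR2.1 BacMam co-transduction, were loaded with CC2-DMPE/DiSBAC6(3) voltage-sensing dyes for 20 min at room temperature. Compounds were tested in 11-point 3-fold dilutions (300 nM top final), optionally with 25% human serum, under electrical stimulation with FRET read-out.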

human NaV 1.8, sequence (Q9Y5Y9 126-399 limits assumed): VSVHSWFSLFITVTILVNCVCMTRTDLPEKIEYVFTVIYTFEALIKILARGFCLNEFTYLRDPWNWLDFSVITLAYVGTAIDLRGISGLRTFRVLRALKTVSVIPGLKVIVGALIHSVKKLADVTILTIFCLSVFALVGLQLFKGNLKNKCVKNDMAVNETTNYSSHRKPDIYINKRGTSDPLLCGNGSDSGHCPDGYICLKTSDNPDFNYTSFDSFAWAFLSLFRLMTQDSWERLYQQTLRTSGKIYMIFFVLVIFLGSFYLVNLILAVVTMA
human NaV 1.8, sequence (Q9Y5Y9 660-890 limits assumed): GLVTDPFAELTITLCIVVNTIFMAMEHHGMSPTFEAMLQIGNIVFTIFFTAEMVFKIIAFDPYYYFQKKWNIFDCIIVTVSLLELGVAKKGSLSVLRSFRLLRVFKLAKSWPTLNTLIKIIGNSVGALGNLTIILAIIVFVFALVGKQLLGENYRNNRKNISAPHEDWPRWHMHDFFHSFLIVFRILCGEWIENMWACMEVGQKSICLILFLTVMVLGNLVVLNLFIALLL
human NaV 1.8, sequence (Q9Y5Y9 1148-1722 limits assumed): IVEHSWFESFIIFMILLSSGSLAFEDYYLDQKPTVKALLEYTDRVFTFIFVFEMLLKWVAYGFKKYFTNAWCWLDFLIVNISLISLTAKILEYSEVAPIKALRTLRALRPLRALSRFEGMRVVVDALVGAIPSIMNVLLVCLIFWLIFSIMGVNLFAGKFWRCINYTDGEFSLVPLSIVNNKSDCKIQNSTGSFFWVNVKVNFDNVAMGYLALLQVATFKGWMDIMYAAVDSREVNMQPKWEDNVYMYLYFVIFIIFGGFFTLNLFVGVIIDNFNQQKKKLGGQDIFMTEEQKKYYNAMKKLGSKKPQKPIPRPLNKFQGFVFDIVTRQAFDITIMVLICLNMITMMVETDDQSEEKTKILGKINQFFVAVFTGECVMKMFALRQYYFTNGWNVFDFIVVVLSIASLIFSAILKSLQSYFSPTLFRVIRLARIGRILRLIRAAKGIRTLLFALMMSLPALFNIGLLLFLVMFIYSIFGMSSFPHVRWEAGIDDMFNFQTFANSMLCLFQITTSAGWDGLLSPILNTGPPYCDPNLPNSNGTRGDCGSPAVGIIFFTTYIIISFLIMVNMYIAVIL

| pIC50 | SMILES |
| --- | --- |
| > 8.00 | COc1c([C@H]2[C@H](C(=O)Nc3cc(C(C)(N)CO)ncc3F)O[C@@](C)(C(F)(F)F)[C@H]2C)ccc(F)c1F (single isomer, unassigned) [Compound 360] |
| > 8.00 | COc1c([C@H]2[C@H](C(=O)Nc3ccnc(C4COCCN4C)c3)O[C@@](C)(C(F)(F)F)[C@H]2C)ccc(F)c1F (single isomer, unassigned) [Compound 364, rel-(2R*,3S*,4S*,5R*)-3-(3,4-difluoro-2-methoxyphenyl)-4,5-dimethyl-N-(2-(4-methylmorpholin-3-yl)pyridin-4-yl)-5-(trifluoromethyl)tetrahydrofuran-2-carboxamide] |
| > 8.00 | COc1c([C@H]2[C@H](C(=O)Nc3cc(C4CN(C)CCO4)ncc3F)O[C@@](C)(C(F)(F)F)[C@H]2C)ccc(F)c1F (single isomer, unassigned) [Compound 366, rel-(2R*,3S*,4S*,5R*)-3-(3,4-difluoro-2-methoxyphenyl)-N-(5-fluoro-2-(4-methylmorpholin-2-yl)pyridin-4-yl)-4,5-dimethyl-5-(trifluoromethyl)tetrahydrofuran-2-carboxamide] |
| 7.00 to 8.00 | COc1c([C@H]2[C@H](C(=O)Nc3cc(C4CN(C)CCO4)ncc3F)O[C@@](C)(C(F)(F)F)[C@H]2C)ccc(F)c1F (single isomer, unassigned) [Compound 367, rel-(2R*,3S*,4S*,5R*)-3-(3,4-difluoro-2-methoxyphenyl)-N-(5-fluoro-2-(4-methylmorpholin-2-yl)pyridin-4-yl)-4,5-dimethyl-5-(trifluoromethyl)tetrahydrofuran-2-carboxamide] |
| > 8.00 | COc1c([C@H]2[C@H](C(=O)Nc3ccnc(C(CO)N(C)C)c3)O[C@@](C)(C(F)(F)F)[C@H]2C)ccc(F)c1F (single isomer, unassigned) [Compound 368] |
| > 8.00 | COc1c([C@H]2[C@H](C(=O)Nc3cc(C(O)CN(C)C)ncc3F)O[C@@](C)(C(F)(F)F)[C@H]2C)ccc(F)c1F (single isomer, unassigned) [Compound 370, rel-(2R*,3S*,4S*,5R*)-3-(3,4-difluoro-2-methoxyphenyl)-N-(2-(2-(dimethylamino)-1-hydroxyethyl)-5-fluoropyridin-4-yl)-4,5-dimethyl-5-(trifluoromethyl)tetrahydrofuran-2-carboxamide] |
| 7.00 to 8.00 | COc1c([C@H]2[C@H](C(=O)Nc3cc(C(O)CN4CCOCC4)ncc3F)O[C@@](C)(C(F)(F)F)[C@H]2C)ccc(F)c1F (single isomer, unassigned) [Compound 371, rel-(2R*,3S*,4S*,5R*)-3-(3,4-difluoro-2-methoxyphenyl)-N-(5-fluoro-2-(1-hydroxy-2-morpholinoethyl)pyridin-4-yl)-4,5-dimethyl-5-(trifluoromethyl)tetrahydrofuran-2-carboxamide] |
| > 8.00 | COc1c([C@H]2[C@H](C(=O)Nc3cc(C(O)CN(C)C)ncc3F)O[C@@](C)(C(F)(F)F)[C@H]2C)ccc(F)c1F (single isomer, unassigned) [Compound 377] |
| ≤ 6.00 | COCC(c1ccc(NC(=O)[C@@H]2O[C@@](C)(C(F)(F)F)[C@@H](C)[C@H]2c2ccc(F)c(F)c2OC)cn1)N1CCC1 (single isomer, unassigned) [Compound 407, rel-(2R*,3S*,4S*,5R*)-N-(6-(1-(azetidin-1-yl)-2-methoxyethyl)-pyridin-3-yl)-3-(3,4-difluoro-2-methoxyphenyl)-4,5-dimethyl-5-(trifluoromethyl)-tetrahydrofuran-2-carboxamide] |
| 7.00 to 8.00 | COc1c([C@H]2[C@H](C(=O)Nc3cnc4c(c3)OCC4O)O[C@@](C)(C(F)(F)F)[C@H]2C)ccc(F)c1F (single isomer, unassigned) [Compound 408, rel-(2R*,3S*,4S*,5R*)-3-(3,4-difluoro-2-methoxyphenyl)-N-(3-hydroxy-2,3-dihydrofuro[3,2-b]pyridin-6-yl)-4,5-dimethyl-5-(trifluoromethyl)-tetrahydrofuran-2-carboxamide] |
| 6.00 to 7.00 | COc1c([C@H]2[C@H](C(=O)Nc3cnc4c(c3)OCC4O)O[C@@](C)(C(F)(F)F)[C@H]2C)ccc(F)c1F (single isomer, unassigned) [Compound 409, rel-(2R*,3S*,4S*,5R*)-3-(3,4-difluoro-2-methoxyphenyl)-N-(3-hydroxy-2,3-dihydrofuro[3,2-b]pyridin-6-yl)-4,5-dimethyl-5-(trifluoromethyl)-tetrahydrofuran-2-carboxamide] |
| > 8.00 | CNC(COC)c1cc(NC(=O)[C@@H]2O[C@@](C)(C(F)(F)F)[C@@H](C)[C@H]2c2ccc(F)c(F)c2OC)ccn1 (single isomer, unassigned) [Compound 412, rel-(2R*,3S*,4S*,5R*)-3-(3,4-difluoro-2-methoxyphenyl)-N-(2-(2-methoxy-1-(methylamino)ethyl)-pyridin-4-yl)-4,5-dimethyl-5-(trifluoromethyl)-tetrahydrofuran-2-carboxamide] |
| 6.00 to 7.00 | CNC(COC)c1ccc(NC(=O)[C@@H]2O[C@@](C)(C(F)(F)F)[C@@H](C)[C@H]2c2ccc(F)c(F)c2OC)cn1 (single isomer, unassigned) [Compound 414, rel-(2R*,3S*,4S*,5R*)-3-(3,4-difluoro-2-methoxyphenyl)-N-(6-(2-methoxy-1-(methylamino)ethyl)-pyridin-3-yl)-4,5-dimethyl-5-(trifluoromethyl)-tetrahydrofuran-2-carboxamide] |
| 7.00 to 8.00 | COCCNC(COC)c1ccc(NC(=O)[C@@H]2O[C@@](C)(C(F)(F)F)[C@@H](C)[C@H]2c2ccc(F)c(F)c2OC)cn1 (single isomer, unassigned) [Compound 417, rel-(2R*,3S*,4S*,5R*)-3-(3,4-difluoro-2-methoxyphenyl)-N-(6-(2-methoxy-1-((2-methoxyethyl)amino)-ethyl)pyridin-3-yl)-4,5-dimethyl-5-(trifluoromethyl)-tetrahydrofuran-2-carboxamide] |
| > 8.00 | CNC(COC)c1cc(NC(=O)[C@@H]2O[C@@](C)(C(F)(F)F)[C@@H](C)[C@H]2c2ccc(F)c(F)c2OC)c(F)cn1 (single isomer, unassigned) [Compound 418, rel-(2R*,3S*,4S*,5R*)-3-(3,4-difluoro-2-methoxyphenyl)-N-(5-fluoro-2-(2-methoxy-1-(methylamino)ethyl)-pyridin-4-yl)-4,5-dimethyl-5-(trifluoromethyl)-tetrahydrofuran-2-carboxamide] |
| ≤ 6.00 | COCC(NC(C)C)c1ccc(NC(=O)[C@@H]2O[C@@](C)(C(F)(F)F)[C@@H](C)[C@H]2c2ccc(F)c(F)c2OC)cn1 (single isomer, unassigned) [Compound 420, rel-(2R*,3S*,4S*,5R*)-3-(3,4-difluoro-2-methoxyphenyl)-N-(6-(1-(isopropylamino)-2-methoxyethyl)pyridin-3-yl)-4,5-dimethyl-5-(trifluoromethyl)-tetrahydrofuran-2-carboxamide] |
| 6.00 to 7.00 | COCC(NC(C)C)c1ccc(NC(=O)[C@@H]2O[C@@](C)(C(F)(F)F)[C@@H](C)[C@H]2c2ccc(F)c(F)c2OC)cn1 (single isomer, unassigned) [Compound 421, rel-(2R*,3S*,4S*,5R*)-3-(3,4-difluoro-2-methoxyphenyl)-N-(6-(1-(isopropylamino)-2-methoxyethyl)pyridin-3-yl)-4,5-dimethyl-5-(trifluoromethyl)-tetrahydrofuran-2-carboxamide] |
| 7.00 to 8.00 | COCC(N)c1cc(NC(=O)[C@@H]2O[C@@](C)(C(F)(F)F)[C@@H](C)[C@H]2c2ccc(F)c(F)c2OC)c(F)cn1 (single isomer, unassigned) [Compound 422, rel-(2R*,3S*,4S*,5R*)-N-(2-(1-amino-2-methoxyethyl)-5-fluoropyridin-4-yl)-3-(3,4-difluoro-2-methoxyphenyl)-4,5-dimethyl-5-(trifluoromethyl)-tetrahydrofuran-2-carboxamide] |
| > 8.00 | COCC(N)c1cc(NC(=O)[C@@H]2O[C@@](C)(C(F)(F)F)[C@@H](C)[C@H]2c2ccc(F)c(F)c2OC)c(F)cn1 (single isomer, unassigned) [Compound 423, rel-(2R*,3S*,4S*,5R*)-N-(2-(1-amino-2-methoxyethyl)-5-fluoropyridin-4-yl)-3-(3,4-difluoro-2-methoxyphenyl)-4,5-dimethyl-5-(trifluoromethyl)-tetrahydrofuran-2-carboxamide] |
| > 8.00 | COCC(c1cc(NC(=O)[C@@H]2O[C@@](C)(C(F)(F)F)[C@@H](C)[C@H]2c2ccc(F)c(F)c2OC)ccn1)N(C)C (single isomer, unassigned) [Compound 424, rel-(2R*,3S*,4S*,5R*)-3-(3,4-difluoro-2-methoxyphenyl)-N-(2-(1-(dimethylamino)-2-methoxyethyl)pyridin-4-yl)-4,5-dimethyl-5-(trifluoromethyl)-tetrahydrofuran-2-carboxamide] |
| 6.00 to 7.00 | COCC(c1ccc(NC(=O)[C@@H]2O[C@@](C)(C(F)(F)F)[C@@H](C)[C@H]2c2ccc(F)c(F)c2OC)cn1)N(C)C (single isomer, unassigned) [Compound 426, rel-(2R*,3S*,4S*,5R*)-3-(3,4-difluoro-2-methoxyphenyl)-N-(6-(1-(dimethylamino)-2-methoxyethyl)pyridin-3-yl)-4,5-dimethyl-5-(trifluoromethyl)-tetrahydrofuran-2-carboxamide] |
| > 8.00 | COc1c([C@H]2[C@H](C(=O)Nc3cc(C(N)C(C)(C)O)ncc3F)O[C@@](C)(C(F)(F)F)[C@H]2C)ccc(F)c1F (single isomer, unassigned) [Compound 428, rel-(2R*,3S*,4S*,5R*)-N-(2-(1-amino-2-hydroxy-2-methylpropyl)-5-fluoropyridin-4-yl)-3-(3,4-difluoro-2-methoxyphenyl)-4,5-dimethyl-5-(trifluoromethyl)-tetrahydrofuran-2-carboxamide] |
